The values that follow come from US10702506B2, “Small molecule inhibitors of pendrin ion exchange and pharmaceutical compositions” (THE REGENTS OF THE UNIVERSITY OF CALIFORNIA, priority 2016, dated 2020).

One assay addresses T1, human SLC26A3 (Homo sapiens, UniProt P40879).
T1 construct: host or cells: COS7 fibroblasts, transient (Lipofectamine 2000), with EYFP-HIF
T1 sequence (P40879 1-764): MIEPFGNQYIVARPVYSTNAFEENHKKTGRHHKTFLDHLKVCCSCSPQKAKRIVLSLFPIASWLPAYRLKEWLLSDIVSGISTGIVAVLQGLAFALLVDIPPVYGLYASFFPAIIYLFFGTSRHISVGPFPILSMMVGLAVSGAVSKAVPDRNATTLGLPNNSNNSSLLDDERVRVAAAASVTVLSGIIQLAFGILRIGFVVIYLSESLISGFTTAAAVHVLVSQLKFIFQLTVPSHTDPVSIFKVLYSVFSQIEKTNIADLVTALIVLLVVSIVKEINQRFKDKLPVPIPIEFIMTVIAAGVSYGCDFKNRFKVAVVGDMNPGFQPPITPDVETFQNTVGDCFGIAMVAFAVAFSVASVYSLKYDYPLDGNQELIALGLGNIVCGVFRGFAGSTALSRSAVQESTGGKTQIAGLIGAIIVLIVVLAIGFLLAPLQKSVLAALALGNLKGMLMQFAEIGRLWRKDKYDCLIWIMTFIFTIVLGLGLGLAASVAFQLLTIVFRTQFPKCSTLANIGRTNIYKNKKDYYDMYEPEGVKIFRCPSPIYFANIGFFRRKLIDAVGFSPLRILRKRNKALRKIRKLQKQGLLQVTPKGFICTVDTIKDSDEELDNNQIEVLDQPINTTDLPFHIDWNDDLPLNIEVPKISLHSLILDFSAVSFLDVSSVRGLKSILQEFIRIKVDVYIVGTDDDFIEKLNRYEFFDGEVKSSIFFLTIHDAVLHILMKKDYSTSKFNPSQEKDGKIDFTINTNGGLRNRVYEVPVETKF
Nature of the assay: SCN− transport YFP quenching assay in SLC26A3-expressing COS7 cells. Format: cell-based. The following applies: 25 μM, 30 min; 70 mM SCN− gradient. As to the method:
SLC26A3 activity was measured using a SCN^− transport assay that produced YFP fluorescence quenching (FIG. 4B).
SLC26A3-mediated ion transport was measured in COS7 fibroblasts transiently transfected to express EYFP-HIF and human SLC26A3 (Origene, Rockville, Md.). COS7 cells were cultured in DMEM-H21 supplemented with 10% FBS, 2 mM glutamine, 100 U/ml penicillin and […] streptomycin and transfected using Lipofectamine 2000 (Invitrogen, Carlsbad, Calif.). SLC26A3-mediated transport was measured from EYFP-HIF fluorescence after addition of a NaSCN-substituted PBS solution to generate a 70 mM SCN^− gradient. Control experiments were done using COS-7 cells expressing EYFP-HIF alone.

A further assay has as its target T2, murine pendrin (Mus musculus, UniProt Q9R155).
T2 construct: expressed in transfected cells
T2 sequence (Q9R155 1-780): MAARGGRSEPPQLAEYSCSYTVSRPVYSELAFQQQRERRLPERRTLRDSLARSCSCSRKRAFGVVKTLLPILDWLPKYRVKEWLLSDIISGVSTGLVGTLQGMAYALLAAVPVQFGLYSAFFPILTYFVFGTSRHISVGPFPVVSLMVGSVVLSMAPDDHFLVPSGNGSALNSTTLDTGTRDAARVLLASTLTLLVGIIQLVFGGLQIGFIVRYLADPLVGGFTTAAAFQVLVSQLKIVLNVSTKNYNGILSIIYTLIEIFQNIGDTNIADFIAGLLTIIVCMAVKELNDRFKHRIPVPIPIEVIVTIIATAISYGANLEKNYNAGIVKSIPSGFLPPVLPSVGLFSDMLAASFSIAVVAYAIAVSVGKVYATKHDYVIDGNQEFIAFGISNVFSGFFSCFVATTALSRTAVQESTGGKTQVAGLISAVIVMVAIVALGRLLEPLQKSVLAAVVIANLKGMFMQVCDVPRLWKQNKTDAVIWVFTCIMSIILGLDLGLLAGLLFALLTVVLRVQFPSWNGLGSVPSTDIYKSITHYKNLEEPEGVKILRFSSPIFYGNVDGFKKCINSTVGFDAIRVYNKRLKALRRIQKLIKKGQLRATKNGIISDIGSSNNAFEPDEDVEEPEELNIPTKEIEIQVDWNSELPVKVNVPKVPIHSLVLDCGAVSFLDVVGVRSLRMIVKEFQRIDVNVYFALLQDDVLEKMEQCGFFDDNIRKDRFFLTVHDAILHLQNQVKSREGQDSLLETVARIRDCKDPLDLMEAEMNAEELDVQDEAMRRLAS
The assay is described as follows: BCECF intracellular pH assay of Cl−/HCO3− exchange in FRT cells expressing murine pendrin. Format: cell-based. The protocol:
Pendrin-mediated exchange of Cl^− with SCN^−, I^− or NO3^− was measured from the kinetics of YFP fluorescence quenching in a BMG FLUOstar Omega platereader. Pendrin/YFP-expressing FRT cells were washed in PBS and transport measured following a 70-mM gradient of SCN^−, I^− or NO3^−. Pendrin-mediated Cl^−/HCO3^− exchange was measured from the kinetics of cytoplasmic pH (pHi) using BCECF-AM (Invitrogen). Pendrin-expressing FRT cells in HCO3^−-containing buffer (in mM: 120 NaCl, 5 KCl, 1 CaCl2), 1 MgSO4, 10 glucose, 5 Hepes, 25 NaHCO3^−; pH 7.4; 95% O2/5% CO2 equilibrated) were exposed to a Cl^−-free buffer (gluconate replacing Cl^−) to drive Cl^− efflux and HCO3^− influx.
Pendrin-mediated Cl^−/HCO3^− exchange was measured from the kinetics of intracellular pH, using BCECF fluorescence as a cytoplasmic pH sensor, following extracellular addition of gluconate in HCO3^−/CO2-containing buffer to drive Cl-efflux, HCO3^− influx, and consequent cytoplasmic alkalinization (FIG. 7D). […] YFP-based fluorescence quenching assays in COS-7 cells were established to measure AE1 (Slc4a1), CLD (Slc26a3) and NCC (Slc12a3) activities. […] A YFP-V163S fluorescence quenching assay in FRT cells was used to measure NKCC1 activity in which cells equilibrated gluconate-substituted PBS buffer were exposed to a Cl^−-containing solution containing 75 mM Na^+ and 75 mM K^+.

As to `Cn1nc(COc2cccc(F)c2)c2c1CCN(C(=O)Nc1ccc(Cl)cc1)C2` [PDSinh-A01], the “inhibition of SLC26A3 SCN− transport (YFP quenching)” value at human SLC26A3 is “not significantly inhibited”.

The compound `Cc1n[nH]c(-c2cc(S(=O)(=O)NC3CCCc4ccccc43)c(C)s2)c1C` (centres unmarked) [PDSinh-C01] showed an IC50 against murine pendrin of about 1200 nM.

Usually IC50 stands for the point on the concentration scale where inhibition reaches its midpoint. A high value points to a need for much substance.
